Measurements: patent publication US4341779A, “Esters of amidinepenicillins” (priority 1978, dated 1982)
Where a name gives a salt, the structure may show the parent alone. Read-outs that look alike come from different tables or passages of the source.

Columns and labels:
[1] = rat, in vivo
[2] = levels of free acid in serum and organs of rats after per os administration of the aminopropyl dihydrochloride; type: in vivo
[3] = LD50 after administration per os in mice; settings: mouse, in vivo, po, LD50, mice, per os
arterial pressure = test: effect onto the arterial pressure of experimental animals; type: in vivo; settings: on the contrary to Pivmecillinam
mice = test: LD50 after administration per os in mice
[4] = comparative levels of 6-/N,N-1',6'-hexyleneformamidine/-penicillanic acid in blood serum, livers, lungs and kidneys of rats after per os administration (Table 2); type: in vivo
Excerpt: The results of the measurements, expressed in μg/ml are specified in Table 2.

in vivo = settings: mouse, po

SMILES: CC1(C)S[C@@H]2[C@H](N=CN3CCCCCC3)C(=O)N2[C@H]1C(=O)O [6-/N,N-1', 6'-hexyleneformamidine/-penicillanic acid, reference compound]
- level of free acid in blood serum ([1]; po, 5 min): 300 ng/mL
- level of free acid in blood serum ([1]; po, 10 min): 900 ng/mL
- level of free acid in blood serum ([1]; po, 0.25 h): 1700 ng/mL
- level of free acid in blood serum ([1]; po, 0.5 h): 1800 ng/mL
- level of free acid in blood serum ([1]; po, 0.75 h): 1900 ng/mL
- level of free acid in blood serum ([1]; po, 1 h): 1900 ng/mL
- level of free acid in blood serum ([1]; po, 2 h): 1600 ng/mL
- level of free acid in blood serum ([1]; po, 3 h): 1300 ng/mL
- level of free acid in blood serum ([1]; po, 4 h): 800 ng/mL
- level of free acid in blood serum ([1]; po, 5 h): 600 ng/mL
- level of free acid in blood serum ([1]; po, 6 h): 500 ng/mL

SMILES: CC(=O)COC(=O)[C@@H]1N2C(=O)[C@@H](N=CN3CCC(CCCN)CC3)[C@H]2SC1(C)C [dihydrochloride of ester methylacetic of 6-{N,N-[3'-(γ-aminopropyl)-1',5'-pentileneformamidine]}-penicillanicacid]
- levels of free acid in serum and organs relative to equivalent dose of corresponding free acid [2]: multiply higher

SMILES: CC(=O)COC(=O)[C@@H]1N2C(=O)[C@@H](N=CN3CCCCCC3)[C@H]2SC1(C)C [methylacetic ester of 6-/N,N-1', 6'-hexyleneformamidine/-penicillanic acid]
- LD50 [3]: > 3000 mg/kg

SMILES: CC(=O)COC(=O)[C@@H]1N2C(=O)[C@@H](N=CN3CCCCCC3)[C@H]2SC1(C)C [Methylacetic ester of 6-N,N-1', 6'-hexyleneformamidine/-peni] [methylacetic ester of 6-/N,N-1', 6'-hexyleneformamidine/-penicillanic acid]
- effect onto the arterial pressure (arterial pressure): no effect
- toxicity compared with Pivascillinam (mice; compared with Pivascillinam): toxicity lower than that of Pivascillinam
- maximum level in kidneys relative to equivalent dose of Pivmecillinam ([4]; kidneys): three times
- maximum level in the liver relative to equivalent dose of Pivmecillinam ([4]; liver): over two times higher
- maximum levels in the lungs, ester and Pivmecillinam compared ([4]; lungs, equivalent doses): approximate ones
- levels of free acid in the serum, comparison of preparations [1]: highest levels
- maximum serum level relative to equivalent dose of Pivmecillinam [1]: over two times higher
- maximum serum level relative to equivalent dose of corresponding free acid [1]: over twenty times higher
- level of free acid in blood serum ([1]; 5 min): 29300 ng/mL
- level of free acid in blood serum ([1]; 10 min): 35000 ng/mL
- level of free acid in blood serum ([1]; 15 min): 42700 ng/mL
- level of free acid in blood serum ([1]; 30 min): 21100 ng/mL
- level of free acid in blood serum ([1]; 45 min): 21200 ng/mL
- level of free acid in blood serum ([1]; 60 min): 16900 ng/mL
- level of free acid in blood serum ([1]; 120 min): 4900 ng/mL
- level of free acid in blood serum ([1]; 180 min): 1600 ng/mL
- level of free acid in blood serum ([1]; 240 min): 800 ng/mL
- level of free acid in blood serum ([1]; 300 min): 600 ng/mL
- level of free acid in blood serum ([1]; 360 min): 300 ng/mL

SMILES: CC(=O)COC(=O)[C@@H]1N2C(=O)[C@@H](N=CN3CCCCCC3)[C@H]2SC1(C)C [Hydrochloride of methylacetic ester of 6-/N,N1', 6'-hexylene] [hydrochloride of methylacetic ester of 6-/N, N-1', 6'-hexyleneformamidine/-penicillanic acid]
- effect onto the arterial pressure (arterial pressure): no effect
- LD50 (mice; mice, per os, listed as hydrochloride of said ester): over 5 g/kg of the body weight
- level of free acid in blood serum ([1]; 5 min): 12900 ng/mL
- level of free acid in blood serum ([1]; 10 min): 14300 ng/mL
- level of free acid in blood serum ([1]; 15 min): 16400 ng/mL
- level of free acid in blood serum ([1]; 30 min): 16100 ng/mL
- level of free acid in blood serum ([1]; 45 min): 18900 ng/mL
- level of free acid in blood serum ([1]; 60 min): 14400 ng/mL
- level of free acid in blood serum ([1]; 120 min): 9100 ng/mL
- level of free acid in blood serum ([1]; 180 min): 2100 ng/mL
- level of free acid in blood serum ([1]; 240 min): 1000 ng/mL
- level of free acid in blood serum ([1]; 300 min): 800 ng/mL
- level of free acid in blood serum ([1]; 360 min): 100 ng/mL

SMILES: CC(C)(C)C(=O)OCOC(=O)[C@@H]1N2C(=O)[C@@H](/N=C/N3CCCCCC3)[C@H]2SC1(C)C [Pivmecillinam, hydrochloride of pivaloyl-oxymethyl ester of 6-/N,N-1',6'-hecylaneformamidine/-penicillanicacid, reference compound]
- LD50 (in vivo): 2600 mg/kg
- level of free acid in blood serum ([1]; 5 min): 6300 ng/mL
- level of free acid in blood serum ([1]; 10 min): 12700 ng/mL
- level of free acid in blood serum ([1]; 15 min): 15500 ng/mL
- level of free acid in blood serum ([1]; 30 min): 19200 ng/mL
- level of free acid in blood serum ([1]; 45 min): 16300 ng/mL
- level of free acid in blood serum ([1]; 60 min): 14700 ng/mL
- level of free acid in blood serum ([1]; 120 min): 7900 ng/mL
- level of free acid in blood serum ([1]; 180 min): 2100 ng/mL
- level of free acid in blood serum ([1]; 240 min): 1800 ng/mL
- level of free acid in blood serum ([1]; 300 min): 1500 ng/mL
- level of free acid in blood serum ([1]; 360 min): 1100 ng/mL
